In patent US6127372A, “Sulfonamide inhibitors of aspartyl protease” (Vertex Pharmaceuticals, Incorporated, priority 1996, dated 2000):
Where two headings read alike, the source gives them in different places.

Target: HIV-1 protease (Human immunodeficiency virus type 1 group M subtype B, UniProt P04585)
Assay: Inhibition constants against HIV-1 protease, method of Pennington et al.
Assay type: biochemical
[1] = HIV-1 protease, method of Pennington et al., read-out: Ki

Row | Compound | Ki [1] [µM] | further results
1 | COc1ccc(S(=O)(=O)N(CC(C)C)C[C@@H](O)CCN(CC(C)C)S(=O)(=O)N(C)C)cc1 [Compound 1034] | 1.1 | –
2 | COc1ccc(S(=O)(=O)N(CC(C)C)C[C@@H](O)CC(=O)N2CCN(C(=O)OCc3ccccc3)C[C@H]2C(=O)NC(C)(C)C)cc1 [Compound 1031] | 1.4 | –
3 | CCCN(CC(=O)c1ccccc1)C[C@H](O)CN(CC1CCCC1)S(=O)(=O)c1ccc(OC)cc1 [Compound 1029] | 3.5 | –
4 | COc1ccc(S(=O)(=O)N(CC2CCCC2)C[C@@H](O)CN(CCc2cccnc2)C(=O)OCc2cccnc2)cc1 [Compound 1025] | 0.27 | –
5 | COc1ccc(S(=O)(=O)N(CC[C@H](O)CN2CCN(C(=O)OCc3ccccc3)C[C@H]2C(=O)NC(C)(C)C)CC(C)C)cc1 [LXXVI] | 2.7 | –
6 | COc1ccc(S(=O)(=O)N(CC[C@H](O)CN(CC(C)C)S(=O)(=O)c2ccc(OC)cc2)CC(C)C)cc1 [XLIVa] | 0.4 | –
7 | COc1ccc(S(=O)(=O)N(CC2CCCC2)C[C@@H](O)CN(CCc2ccccc2)C(=O)Cc2ccccc2)cc1 [Compound 1020] | 0.17 | –
8 | COc1ccc(S(=O)(=O)N(CC2CCCC2)C[C@@H](O)CN(CCc2ccccc2)C(=O)Oc2ccccc2)cc1 [Compound 1022] | – | Ki: 0.17 µM
9 | COc1ccc(S(=O)(=O)N(CC(C)C)C[C@@H](O)CCN(CC2CCCC2)C(=O)O[C@H]2CCOC2)cc1 [Compound 1039] | > 3 | –
10 | COc1ccc(S(=O)(=O)N(CC(C)C)CC(O)CNc2ccccc2C(=O)NC(C)(C)C)cc1 (stereo not drawn) [Compound 1002] | 16 | –
11 | Nc1cccc(S(=O)(=O)N(CC2CCCC2)C[C@@H](O)CN(CCc2ccccc2)C(=O)c2cccnc2)c1 [Compound 1044] | 0.22 | –
12 | COc1ccc(S(=O)(=O)N(CC(C)C)C[C@@H](O)CCN(CCc2ccccc2)C(=O)O[C@H]2CCOC2)cc1 [Compound 1037] | > 10 | –
13 | COc1ccc(S(=O)(=O)N(CCc2ccccc2)CC[C@H](O)CN(CC(C)C)S(=O)(=O)c2ccc(OC)cc2)cc1 [Compound 1035] | 3.6 | –
14 | COc1ccc(S(=O)(=O)N(CC2CCCC2)C[C@@H](O)CN(CCCc2ccccc2)C(=O)O[C@H]2CCOC2)cc1 [Compound 1006] | 0.47 | –
15 | COc1ccc(S(=O)(=O)N(CC2CCCC2)C[C@@H](O)CN(CCc2ccccc2)C(=O)OCc2ccccc2)cc1 [Compound 1019] | 0.02 | –
16 | COc1ccc(S(=O)(=O)N(CC2CCCC2)C[C@@H](O)CN(CCC(C)C)C(=O)O[C@H]2CCOC2)cc1 [Compound 1003] | 1.2 | –

Row | Compound | Ki [1] [µM] | further results
17 | COc1ccc(S(=O)(=O)N(CC(O)CN2CC(c3ccccc3)c3ccccc3C2=O)CC2CCCC2)cc1 (stereo not drawn) [Compound 1048] | 3.3 | –
18 | COc1ccc(S(=O)(=O)N(CC(C)C)C[C@H](O)CCN(CCc2ccccc2)C(=O)O[C@H]2CCOC2)cc1 [Compound 1038] | > 10 | –
19 | COc1ccc(S(=O)(=O)N(CC2CCCC2)C[C@@H](O)CN(CCc2ccccc2)C(=O)O[C@H]2CCOC2)cc1 [Compound 1001] | – | Ki (read-out: Ki): 0.03 µM
20 | Nc1ccc(S(=O)(=O)N(CC2CCCC2)C[C@@H](O)CN(CCc2ccccc2)C(=O)O[C@H]2CCOC2)cc1 [Compound 1008] | 0.26 | –
21 | COc1ccc(S(=O)(=O)N(CC(C)C)C[C@H](O)CCN(CC2CCCC2)C(=O)O[C@H]2CCOC2)cc1 [Compound 1040] | > 10 | –
22 | COc1ccc(S(=O)(=O)N(CC2CCCC2)C[C@@H](O)CN(CCc2ccccc2)CC(=O)c2ccccc2)cc1 [Compound 1028] | 0.8 | –
23 | COc1ccc(S(=O)(=O)N(CC(C)C)C[C@@H](O)CCN2CCCC[C@H]2C(=O)NC(C)(C)C)cc1 [Compound 1033] | 1.6 | –
24 | COc1ccc(S(=O)(=O)N(CC(O)CN2C(=O)OC[C@@H]2Cc2ccccc2)CC2CCCC2)cc1 (stereo partly drawn) [Compound 1046] | 1.2 | –
25 | COc1ccc(S(=O)(=O)N(CC(C)C)C[C@@H](O)CC(Cc2ccccc2)C(=O)NCC(C)C)cc1 (stereo partly drawn) [LI] | 5 | –
26 | COc1ccc(S(=O)(=O)N(CC2CCCC2)C[C@@H](O)CN(CC(C)C)C(=O)O[C@H]2CCOC2)cc1 [Compound 1004] | 1.3 | –
27 | COc1ccc(S(=O)(=O)N(CC(C)C)C[C@@H](O)CCN(CCc2ccccc2)C(=O)OC2COC3OCCC23)cc1 (stereo partly drawn) [Compound 1036] | 8 | –
28 | COc1ccc(S(=O)(=O)N(CC2CCCC2)C[C@@H](O)CN(CCc2ccccc2)C(C)=O)cc1 [Compound 1047] | 1.6 | –
29 | COc1ccc(S(=O)(=O)N(CC(C)C)C[C@@H](O)CCN(CC2CCCC2)S(=O)(=O)c2cccc(N)c2)cc1 [Compound 1041] | 0.27 | –
30 | COc1ccc(S(=O)(=O)N(CC[C@H](O)CN2CCCC[C@H]2C(=O)NC(C)(C)C)CC(C)C)cc1 [XLVIII] | 3.3 | –
31 | CC(C)CN(C[C@@H](O)CN(CCc1ccccc1)C(=O)O[C@H]1CCOC1)S(=O)(=O)c1cccc(N)c1 [Compound 1012] | 0.2 | –

The remaining compounds from weak to strong by Ki [1], led by results:

Row | Ki [1] [µM] | Compound | further results
32 | 0.167 | COc1ccc(S(=O)(=O)N(CC[C@H](O)CN(CC(C)C)S(=O)(=O)c2ccc(OC)cc2)CC2CCCC2)cc1 [LVa] | –
33 | 0.16 | CC(C)CN(C[C@@H](O)CCN(CC1CCCC1)S(=O)(=O)c1ccc(O)cc1)S(=O)(=O)c1ccc(O)cc1 [XLV] | –
34 | 0.13 | Nc1cccc(S(=O)(=O)N(CC2CCCC2)C[C@@H](O)CN(CCc2ccccc2)C(=O)OC2COCOC2)c1 [Compound 1014] | –
35 | 0.12 | Nc1cccc(S(=O)(=O)N(CC2CCCC2)C[C@@H](O)CN(CCc2ccccc2)C(=O)O[C@H]2CCOC2)c1 [Compound 1009] | –
36 | 0.11 | COc1ccc(S(=O)(=O)N(CC2CCCC2)C[C@@H](O)CN(CCC2CCCCC2)C(=O)O[C@H]2CCOC2)cc1 [Compound 1011] | –
37 | 0.11 | COc1ccc(S(=O)(=O)N(CC2CCCC2)C[C@@H](O)CN(CCc2ccc(O)c(O)c2)C(=O)O[C@H]2CCOC2)cc1 [Compound 1017] | –
38 | 0.1 | COc1ccc(S(=O)(=O)N(CC2CCCC2)C[C@H](O)CN(CCc2ccccc2)C(=O)O[C@H]2CCOC2)cc1 [Compound 1000] | –
39 | 0.075 | COc1ccc(S(=O)(=O)N(CC2CCCC2)C[C@@H](O)CN(CCc2ccc(O)cc2)C(=O)O[C@H]2CCOC2)cc1 [Compound 1016] | –
40 | 0.07 | C=CCOC(=O)N(CCc1ccccc1)C[C@H](O)CN(CC1CCCC1)S(=O)(=O)c1ccc(OC)cc1 [Compound 1021] | –
41 | 0.066 | COc1ccc(S(=O)(=O)N(CC2CCCC2)C[C@@H](O)CN(CCc2ccccc2)C(=O)c2cccc(O)c2C)cc1 [Compound 1024] | –
42 | 0.052 | O=C(OCc1cccnc1)N(CCc1ccccc1)C[C@H](O)CN(CC1CCCC1)S(=O)(=O)c1ccccc1 [Compound 1023] | –
43 | 0.05 | Nc1cccc(S(=O)(=O)N(CC2CCCC2)C[C@@H](O)CN(CCc2ccccc2)C(=O)O[C@@H]2COC3OCCC32)c1 (stereo partly drawn) [Compound 1013] | –
44 | 0.035 | O=C(O[C@H]1CCOC1)N(CCc1ccccc1)C[C@H](O)CN(CC1CCCC1)S(=O)(=O)c1ccc(O)cc1 [Compound 1007] | –
45 | 0.02 | COc1ccc(S(=O)(=O)N(CC2CCCC2)C[C@@H](O)CN(CCc2ccccc2)C(=O)c2ccccc2)cc1 [Compound 1026] | –
46 | 0.014 | Nc1cccc(S(=O)(=O)N(CC2CCCC2)C[C@@H](O)CN(CCc2ccccc2)C(=O)c2ccncc2)c1 [Compound 1045] | –
47 | 0.011 | COc1ccc(S(=O)(=O)N(CC(C)C)C[C@@H](O)CC(Cc2ccccc2)C(=O)N[C@H]2c3ccccc3C[C@H]2O)cc1 (stereo partly drawn) [LII] | –
48 | 0.007 | COc1ccc(S(=O)(=O)N(CC(O)CN(CCc2ccccc2)C(=O)[C@H](NC(=O)OCc2ccccc2)C(C)C)CC2CCCC2)cc1 (stereo partly drawn) [Compound 1027] | –
